The source of these data is patent publication US10487092B2, “Pyrazolopyridinamines as MKNK1 and MKNK2 inhibitors” (BAYER PHARMA AKTIENGESELLSCHAFT, priority 2014, dated 2019).

Chain of human full-length MKNK1 (Q9BUB5 other isoform, or with tags, fused parts or gaps T344D): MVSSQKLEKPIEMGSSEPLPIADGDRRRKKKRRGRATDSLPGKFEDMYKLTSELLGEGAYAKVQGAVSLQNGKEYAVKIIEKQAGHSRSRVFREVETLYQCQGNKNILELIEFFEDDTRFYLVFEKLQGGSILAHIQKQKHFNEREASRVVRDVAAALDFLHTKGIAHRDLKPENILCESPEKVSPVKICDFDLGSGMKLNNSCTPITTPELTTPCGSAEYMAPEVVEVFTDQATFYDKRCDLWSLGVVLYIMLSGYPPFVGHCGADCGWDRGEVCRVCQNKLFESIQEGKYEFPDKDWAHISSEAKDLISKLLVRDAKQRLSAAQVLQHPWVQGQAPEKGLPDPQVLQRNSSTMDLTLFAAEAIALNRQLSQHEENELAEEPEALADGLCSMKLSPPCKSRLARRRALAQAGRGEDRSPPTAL

For the assay, the target named is human full-length MKNK1 (Homo sapiens (Human), UniProt Q9BUB5, T344D). Kind of assay: MKNK1 kinase high ATP assay (TR-FRET). It counts as biochemical. Conditions: high ATP (2 mM), 15 min preincubation with enzyme; read-out: MKNK1 IC50. Put shortly:
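GST-tagged full-length MKNK1 (aa 1–424, T344D; insect-cell expressed) preincubated 15 min with compound, then reacted 30 min at 22 °C with 2 mM ATP and 0.06 μM biotinylated peptide (final) in HEPES pH 7.5 buffer. Phosphopeptide detected by TR-FRET 665/620 ratio, normalized to no-inhibitor and no-enzyme controls.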
As to `CCN(CCOC)C(=O)[C@H]1CCc2c(sc3ncnc(Nc4cc5ccnn5cc4OC)c23)C1` [Example 118, (7S)—N-Ethyl-N-(2-methoxyethyl)-4-[(6-methoxypyrazolo[1,5-a]pyridin-5-yl)amino]-5,6,7,8-tetrahydro[1]benzothieno[2,3-d]pyrimidine-7-carboxamide], the IC50 (commonly the concentration needed to halve the response being measured) was 0.001 µM.

Take `O=C([C@H]1CCc2c(sc3ncnc(Nc4cc5ccnn5cc4Cl)c23)C1)N1C[C@@H]2C[C@H]1CO2` [Example 74, (7S)-4-[(6-Chloropyrazolo[1,5-a]pyridin-5-yl)amino]-5,6,7,8-tetrahydro[1]benzothieno[2,3-d]pyrimidin-7-yl[(1S,4S)-2-oxa-5-azabicyclo[2.2.1]hept-5-yl]methanone]: the IC50 amounted to 0.022 µM.

With `CN(C)CCN(C)C1CCN(C(=O)[C@H]2CCc3c(sc4ncnc(Nc5ccn6nccc6c5)c34)C2)CC1` [Example 40, (4-{[2-(Dimethylamino)ethyl](methyl)amino}piperidin-1-yl)[(7S)-4-(pyrazolo[1,5-a]pyridin-5-ylamino)-5,6,7,8-tetrahydro[1]benzothieno[2,3-d]pyrimidin-7-yl]methanone], the IC50 is 0.006 µM.

With `O=C([C@H]1CCc2c(sc3ncnc(Nc4ccn5nccc5c4)c23)C1)N1CC2(COC2)C1` [Example 35, 2-Oxa-6-azaspiro[3.3]hept-6-yl[(7S)-4-(pyrazolo[1,5-a]pyridin-5-ylamino)-5,6,7,8-tetrahydro[1]benzothieno[2,3-d]pyrimidin-7-yl]methanone], the IC50 amounted to 0.075 µM.

For the molecule `CN(C)C(=O)CN(C)C(=O)[C@H]1CCc2c(sc3ncnc(Nc4ccn5nccc5c4)c23)C1` [Example 26, (7S)—N-[2-(Dimethylamino)-2-oxoethyl]-N-methyl-4-(pyrazolo[1,5-a]pyridin-5-ylamino)-5,6,7,8-tetrahydro[1]benzothieno[2,3-d]pyrimidine-7-carboxamide], the IC50 was determined as 0.014 µM.

Take `COc1cn2nccc2cc1Nc1ncnc2sc3c(c12)CC[C@H](C(=O)NC1(C)CCC1)C3` [Example 87, (7S)-4-[(6-Methoxypyrazolo[1,5-a]pyridin-5-yl)amino]-N-(1-methylcyclobutyl)-5,6,7,8-tetrahydro[1]benzothieno[2,3-d]pyrimidine-7-carboxamide]: the IC50 worked out at 0.004 µM.

With `COc1cn2nccc2cc1Nc1ncnc2sc3c(c12)CC[C@H](C(=O)NC(C)(C)C)C3` [Example 86, (7S)—N-tert-Butyl-4-[(6-methoxypyrazolo[1,5-a]pyridin-5-yl)amino]-5,6,7,8-tetrahydro[1]benzothieno[2,3-d]pyrimidine-7-carboxamide], the IC50 came out at 0.004 µM.

`CCN(CCOC)C(=O)[C@H]1CCc2c(sc3ncnc(Nc4cc5ccnn5cc4Cl)c23)C1` [Example 70, (7S)-4-[(6-Chloropyrazolo[1,5-a]pyridin-5-yl)amino]-N-ethyl-N-(2-methoxyethyl)-5,6,7,8-tetrahydro[1]benzothieno[2,3-d]pyrimidine-7-carboxamide]: the IC50 amounted to 0.007 µM.

With `O=C(NCCC(F)(F)F)[C@H]1CCc2c(sc3ncnc(Nc4cc5ccnn5cc4Cl)c23)C1` [Example 43, (7S)-4-[(6-Chloropyrazolo[1,5-a]pyridin-5-yl)amino]-N-(3,3,3-trifluoropropyl)-5,6,7,8-tetrahydro[1]benzothieno[2,3-d]pyrimidine-7-carboxamide], the IC50 was 0.035 µM.

With `C[C@@H]1CN(C(=O)[C@H]2CCc3c(sc4ncnc(Nc5cc6ccnn6cc5Cl)c34)C2)C[C@H](C)O1` [Example 64, (7S)-4-[(6-Chloropyrazolo[1,5-a]pyridin-5-yl)amino]-5,6,7,8-tetrahydro[1]benzothieno[2,3-d]pyrimidin-7-yl[(2R,6S)-2,6-dimethylmorpholin-4-yl]methanone], the IC50 turned out to be 0.01 µM.

As to `COc1cn2nccc2cc1Nc1ncnc2sc3c(c12)CC[C@H](C(=O)NCCC(F)(F)F)C3` [Example 80, (7S)-4-[(6-Methoxypyrazolo[1,5-a]pyridin-5-yl)amino]-N-(3,3,3-trifluoropropyl)-5,6,7,8-tetrahydro[1]benzothieno[2,3-d]pyrimidine-7-carboxamide], the IC50 is 0.003 µM.

For `CN1CCN(C(=O)[C@H]2CCc3c(sc4ncnc(Nc5ccn6nccc6c5)c34)C2)CC1` [Example 29, (4-Methylpiperazin-1-yl)[(7S)-4-(pyrazolo[1,5-a]pyridin-5-ylamino)-5,6,7,8-tetrahydro[1]benzothieno[2,3-d]pyrimidin-7-yl]methanone], the IC50 is 0.02 µM.

Take `COCCN(C)C(=O)[C@H]1CCc2c(sc3ncnc(Nc4ccn5nccc5c4)c23)C1` [Example 8, (7S)—N-(2-Methoxyethyl)-N-methyl-4-(pyrazolo[1,5-a]pyridin-5-ylamino)-5,6,7,8-tetrahydro[1]benzothieno[2,3-d]pyrimidine-7-carboxamide]: the IC50 was 0.042 µM.

As to `C[C@@H]1CN(C(=O)[C@H]2CCc3c(sc4ncnc(Nc5ccn6nccc6c5)c34)C2)C[C@H](C)O1` [Example 5, [(2R,6S)-2,6-Dimethylmorpholin-4-yl][(7S)-4-(pyrazolo[1,5-a]pyridin-5-ylamino)-5,6,7,8-tetrahydro[1]benzothieno[2,3-d]pyrimidin-7-yl]methanone], the IC50 amounted to 0.021 µM.

For `COc1cn2nccc2cc1Nc1ncnc2sc3c(c12)CC[C@H](C(=O)N(C)CCC(F)(F)F)C3` [Example 96, (7S)-4-[(6-Methoxypyrazolo[1,5-a]pyridin-5-yl)amino]-N-methyl-N-(3,3,3-trifluoropropyl)-5,6,7,8-tetrahydro[1]benzothieno[2,3-d]pyrimidine-7-carboxamide], the IC50 is 0.007 µM.

With `CNC(=O)[C@H]1CCc2c(sc3ncnc(Nc4cc5ccnn5cc4OC)c23)C1` [Example 78, (7S)-4-[(6-Methoxypyrazolo[1,5-a]pyridin-5-yl)amino]-N-methyl-5,6,7,8-tetrahydro[1]benzothieno[2,3-d]pyrimidine-7-carboxamide], the IC50 came to 0.005 µM.

Regarding `CCN(C)C(=O)[C@H]1CCc2c(sc3ncnc(Nc4cc5ccnn5cc4OC)c23)C1` [Example 94, (7S)—N-Ethyl-4-[(6-methoxypyrazolo[1,5-a]pyridin-5-yl)amino]-N-methyl-5,6,7,8-tetrahydro[1]benzothieno[2,3-d]pyrimidine-7-carboxamide], the IC50 came out at 0.001 µM.

For `O=C([C@H]1CCc2c(sc3ncnc(Nc4ccn5nccc5c4)c23)C1)N1C[C@H]2C[C@@H]1CO2` [Example 37, (1R,4R)-2-Oxa-5-azabicyclo[2.2.1]hept-5-yl[(7S)-4-(pyrazolo[1,5-a]pyridin-5-ylamino)-5,6,7,8-tetrahydro[1]benzothieno[2,3-d]pyrimidin-7-yl]methanone], the IC50 worked out at 0.056 µM.

In the case of `CN(C)[C@@H]1CCN(C(=O)[C@H]2CCc3c(sc4ncnc(Nc5cc6ccnn6cc5Cl)c34)C2)C1` [Example 58, (7S)-4-[(6-Chloropyrazolo[1,5-a]pyridin-5-yl)amino]-5,6,7,8-tetrahydro[1]benzothieno[2,3-d]pyrimidin-7-yl[(3R)-3-(dimethylamino)pyrrolidin-1-yl]methanone], the IC50 is 0.002 µM.

For `COc1cn2nccc2cc1Nc1ncnc2sc3c(c12)CC[C@H](C(=O)Nc1ccc(F)cc1)C3` [Example 88, (7S)—N-(4-Fluorophenyl)-4-[(6-methoxypyrazolo[1,5-a]pyridin-5-yl)amino]-5,6,7,8-tetrahydro[1]benzothieno[2,3-d]pyrimidine-7-carboxamide], the IC50 came out at 0.008 µM.

As for `O=C([C@H]1CCc2c(sc3ncnc(Nc4cc5ccnn5cc4Cl)c23)C1)N1C[C@H]2C[C@@H]1CO2` [Example 75, (7S)-4-[(6-Chloropyrazolo[1,5-a]pyridin-5-yl)amino]-5,6,7,8-tetrahydro[1]benzothieno[2,3-d]pyrimidin-7-yl[(1R,4R)-2-oxa-5-azabicyclo[2.2.1]hept-5-yl]methanone], the IC50 was found to be 0.056 µM.

`CN(C)CCN(C)C(=O)[C@H]1CCc2c(sc3ncnc(Nc4ccn5nccc5c4)c23)C1` [Example 4, (7S)—N-[2-(Dimethylamino)ethyl]-N-methyl-4-(pyrazolo[1,5-a]pyridin-5-ylamino)-5,6,7,8-tetrahydro[1]benzothieno[2,3-d]pyrimidine-7-carboxamide]: the IC50 came to 0.021 µM.

As for `N#CC1CN(C(=O)[C@H]2CCc3c(sc4ncnc(Nc5cc6ccnn6cc5Cl)c34)C2)C1` [Example 50, 1-((7S)-4-[(6-Chloropyrazolo[1,5-a]pyridin-5-yl)amino]-5,6,7,8-tetrahydro[1]benzothieno[2,3-d]pyrimidin-7-ylcarbonyl)azetidine-3-carbonitrile], the IC50 was 0.007 µM.

For the molecule `CN(CC(F)F)C(=O)[C@H]1CCc2c(sc3ncnc(Nc4ccn5nccc5c4)c23)C1` [Example 18, (7S)—N-(2,2-Difluoroethyl)-N-methyl-4-(pyrazolo[1,5-a]pyridin-5-ylamino)-5,6,7,8-tetrahydro[1]benzothieno[2,3-d]pyrimidine-7-carboxamide], the IC50 came out at 0.019 µM.

Take `C[C@@H]1COC[C@H](C)N1C(=O)[C@H]1CCc2c(sc3ncnc(Nc4ccn5nccc5c4)c23)C1` [Example 13, [(3R,5S)-3,5-Dimethylmorpholin-4-yl][(7S)-4-(pyrazolo[1,5-a]pyridin-5-ylamino)-5,6,7,8-tetrahydro[1]benzothieno[2,3-d]pyrimidin-7-yl]methanone]: the IC50 is 0.017 µM.

On to `CN(CC(F)F)C(=O)[C@H]1CCc2c(sc3ncnc(Nc4cc5ccnn5cc4Cl)c23)C1` [Example 47, (7S)-4-[(6-Chloropyrazolo[1,5-a]pyridin-5-yl)amino]-N-(2,2-difluoroethyl)-N-methyl-5,6,7,8-tetrahydro[1]benzothieno[2,3-d]pyrimidine-7-carboxamide], for which the IC50 was found to be 0.018 µM.

As to `CN(C)C(=O)[C@H]1CCc2c(sc3ncnc(Nc4ccn5nccc5c4)c23)C1` [Example 17, (7S)—N,N-Dimethyl-4-(pyrazolo[1,5-a]pyridin-5-ylamino)-5,6,7,8-tetrahydro[1]benzothieno[2,3-d]pyrimidine-7-carboxamide], the IC50 was found to be 0.033 µM.
